Like-named read-outs stand apart in the source and are kept apart here.
What was measured:
[1] = target: T1, PDGF-Ra (Homo sapiens, UniProt P16234); experiment: Inhibitory activity against PDGF-Ra phosphorylation by PDGF-AA stimulation using G292; type: cell-based; conditions: for IC50: > means inhibition at indicated concentration not more than 50%, < and << not less than 50%, read-out: PDGF (E) IC50; for inhibition at 0.1 µM: G292, at 100 nM, read-out: PDGF (E) inhibition (%) at 100 nM
T1 construct: host or cells: G-292 human osteosarcoma cells
T1 sequence (P16234 24-1089): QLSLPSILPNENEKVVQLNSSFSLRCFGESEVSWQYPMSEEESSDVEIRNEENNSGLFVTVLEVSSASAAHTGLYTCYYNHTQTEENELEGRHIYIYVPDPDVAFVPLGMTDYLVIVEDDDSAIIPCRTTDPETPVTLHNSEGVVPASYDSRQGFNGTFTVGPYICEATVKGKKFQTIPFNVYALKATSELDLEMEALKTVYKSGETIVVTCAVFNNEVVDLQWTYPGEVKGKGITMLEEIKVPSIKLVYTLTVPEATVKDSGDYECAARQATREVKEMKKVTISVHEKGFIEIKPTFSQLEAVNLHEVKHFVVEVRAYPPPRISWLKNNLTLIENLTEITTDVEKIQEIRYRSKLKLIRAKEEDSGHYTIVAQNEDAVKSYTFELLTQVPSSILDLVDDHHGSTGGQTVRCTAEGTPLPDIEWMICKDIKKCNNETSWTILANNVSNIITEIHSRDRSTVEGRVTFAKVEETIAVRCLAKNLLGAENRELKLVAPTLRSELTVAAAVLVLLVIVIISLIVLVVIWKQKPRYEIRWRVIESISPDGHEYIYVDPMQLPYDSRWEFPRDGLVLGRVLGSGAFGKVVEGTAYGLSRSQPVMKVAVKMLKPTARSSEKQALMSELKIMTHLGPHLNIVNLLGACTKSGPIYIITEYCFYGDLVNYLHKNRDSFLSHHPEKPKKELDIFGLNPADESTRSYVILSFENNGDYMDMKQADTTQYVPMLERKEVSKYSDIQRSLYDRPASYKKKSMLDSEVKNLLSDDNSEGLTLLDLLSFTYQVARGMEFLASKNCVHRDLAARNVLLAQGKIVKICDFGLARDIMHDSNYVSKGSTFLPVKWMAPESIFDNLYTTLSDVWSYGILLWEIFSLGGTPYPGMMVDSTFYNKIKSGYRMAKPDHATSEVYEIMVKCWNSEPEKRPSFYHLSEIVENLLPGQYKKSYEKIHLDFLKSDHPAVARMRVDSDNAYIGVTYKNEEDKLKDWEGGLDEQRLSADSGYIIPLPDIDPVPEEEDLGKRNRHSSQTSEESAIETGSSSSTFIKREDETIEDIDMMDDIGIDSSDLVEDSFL
Procedure, shortened: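 Human osteosarcoma G-292, 0.1% FBS o/n; cpd (DMSO) 1 h 37 °C; PDGF-AA 50 ng/ml 5 min; lyse 20 min RT; PY-20 capture 4 °C o/n; anti-PDGF-Ra + HRP-GAR; OD450.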

[2] = target: T2, c-kit (Homo sapiens, UniProt P10721); experiment: Inhibitory activity against c-kit autophosphorylation (MO7e cells, h-SCF); type: cell-based; conditions: for IC50: MO7e cells, read-out: c-kit IC50; for inhibition at 1 µM: Mo7e, at 1000 nM
T2 construct: MO7e (human megakaryocytic leukemia cell line) which had been arrested for 20 hr; endogenous in cells; host or cells: MO7e human megakaryocytic leukemia cell line
T2 sequence (P10721 26-976): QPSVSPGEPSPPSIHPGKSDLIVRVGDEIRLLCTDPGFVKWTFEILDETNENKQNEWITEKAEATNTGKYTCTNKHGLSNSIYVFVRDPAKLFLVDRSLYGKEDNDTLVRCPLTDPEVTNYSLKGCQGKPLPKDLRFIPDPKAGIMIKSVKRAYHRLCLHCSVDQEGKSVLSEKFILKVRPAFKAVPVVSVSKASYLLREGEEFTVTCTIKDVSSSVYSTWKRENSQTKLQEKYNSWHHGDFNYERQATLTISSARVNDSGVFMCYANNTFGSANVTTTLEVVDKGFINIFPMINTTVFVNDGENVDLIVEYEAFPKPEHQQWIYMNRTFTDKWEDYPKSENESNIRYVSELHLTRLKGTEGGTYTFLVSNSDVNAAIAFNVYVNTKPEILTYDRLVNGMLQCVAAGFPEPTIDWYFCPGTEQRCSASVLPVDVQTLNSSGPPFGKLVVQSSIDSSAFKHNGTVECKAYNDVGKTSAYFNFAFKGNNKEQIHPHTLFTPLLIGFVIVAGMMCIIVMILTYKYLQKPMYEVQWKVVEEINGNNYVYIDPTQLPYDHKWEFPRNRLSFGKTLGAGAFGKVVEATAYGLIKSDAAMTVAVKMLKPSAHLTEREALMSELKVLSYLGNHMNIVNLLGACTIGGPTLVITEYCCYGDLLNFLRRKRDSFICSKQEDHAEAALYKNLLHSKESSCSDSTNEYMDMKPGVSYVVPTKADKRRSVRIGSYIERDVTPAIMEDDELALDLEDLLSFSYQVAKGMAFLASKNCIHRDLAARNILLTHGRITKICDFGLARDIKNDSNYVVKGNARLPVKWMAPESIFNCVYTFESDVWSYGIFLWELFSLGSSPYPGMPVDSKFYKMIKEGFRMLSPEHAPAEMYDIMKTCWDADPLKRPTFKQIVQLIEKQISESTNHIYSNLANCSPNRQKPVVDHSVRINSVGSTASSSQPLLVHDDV
Procedure, shortened: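 Growth-arrested (20 hr) MO7e; cpd in DMSO, 1 hr; h-SCF 50 ng/ml, 5 min; lyse. ELISA: anti-pTyr (PY-20) capture, anti-c-kit 1° Ab, HRP anti-rabbit 2° Ab, A450.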

[3] = figure in parentheses in >100( )
[4] = figure within parentheses in >100( )
[5] = figure within parentheses in −( ) or >1000( )

Compound | IC50 [1] [nM] | IC50 ([1]; Pharmacological Test Example 1) [nM] | IC50 ([2]; h-SCF 50 ng/ml) [nM] | also measured
COc1cc2nccc(Oc3ccc(NC(=S)NC(=O)N4CCOCC4)cc3)c2cc1OC [Example 1045, N-{4-[(6,7-Dimethoxy-4-quinolyl)oxy]phenyl}-N′-morpholinocarbonylthiourea] | 17 |  |  | IC50 ([2]; h-SCF stimulation): 193 nM
CCCCC(CC)OC(=O)Nc1ccc(Oc2ncnc3cc(OC)c(OC)cc23)cc1 (centres unmarked) [Example 401, 1-Ethylpentyl N-{4-[(6,7-dimethoxy-4-quinazolinyl)oxy]phenyl}carbamate] | < 10 |  |  | IC50 ([2]; 50 ng/ml h-SCF): 586 nM
COc1cccc(OCCCOC(=O)Nc2ccc(Oc3ncnc4cc(OC)c(OC)cc34)cc2)c1 [Example 50, 3-(3-Methoxyphenoxy)propyl N-{4-[(6,7-dimethoxy-4-quinazolinyl)oxy]phenyl}carbamate] |  | < 10 | 50 | 
COc1cc2nccc(Oc3cc(C)c(NCCCOc4ccccc4C)cc3C)c2cc1OC [Example 889, N-{4-[(6,7-Dimethoxy-4-quinolyl)oxy]-2,5-dimethylphenyl}-N-[3-(2-methylphenoxy)propyl]amine] | > 100 |  |  | inhibition at 0.1 µM [1, 3]: 30%; inhibition at 1 µM ([2]; figure in parentheses in −( )): 28%
COc1cc2nccc(Oc3ccc(NC(=S)NC(=O)N4CCOCC4)cc3Cl)c2cc1OC [Example 1052, N-{3-Chloro-4-[(6,7-dimethoxy-4-quinolyl)oxy]phenyl}-N′-morpholinocarbonylthiourea] | 21 |  |  | IC50 ([2]; h-SCF stimulation): 408 nM
CCCC(CCN1CCCCC1)OC(=O)Nc1cc(C)c(Oc2ccnc3cc(OC)c(OC)cc23)cc1C (centres unmarked) [Example 446, 1-(2-Piperidinoethyl)butyl N-{4-[(6,7-dimethoxy-4-quinolyl)oxy]-2,5-dimethylphenyl}carbamate] | > 100 |  |  | inhibition at 0.1 µM [1, 4]: 39%; inhibition at 1 µM [2, 5]: 40%
COc1cccc(COC(=O)Nc2ccc(Oc3ccnc4cc(OC)c(OC)cc34)c(C)c2C)c1 [Example 238, 3-Methoxybenzyl N-{4-[(6,7-dimethoxy-4-quinolyl)oxy]-2,3-dimethylphenyl}carbamate] |  | 10 | 36 | 
CCCCN(CCCC)CCCNC(=S)Nc1cc(C)c(Oc2ccnc3cc(OC)c(OC)cc23)cc1C [Example 552, N-{4-[(6,7-Dimethoxy-4-quinolyl)oxy]-2,5-dimethylphenyl}-N′-(3-dibutylaminopropyl)thiourea] | > 100 |  |  | inhibition at 0.1 µM [1, 4]: 10%; inhibition at 1 µM [2, 5]: 28%
COc1cc2nccc(Oc3cc(C)c(NC(=O)Oc4ccc(C(C)(C)C)cc4)cc3C)c2cc1OC [Example 274, 4-(Tert-butyl)phenyl N-{4-[(6,7-dimethoxy-4-quinolyl)oxy]-2,5-dimethylphenyl}carbamate] |  | 25 | 399 | 
COc1cc2nccc(Oc3cc(C)c(NC(=O)Oc4c(OC)cccc4OC)cc3C)c2cc1OC [Example 281, 2,6-Dimethoxyphenyl N-{4-[(6,7-dimethoxy-4-quinolyl)oxy]-2,5-dimethylphenyl}carbamate] |  | > 100 | 268 | inhibition at 0.1 µM [1, 3]: 49%
COc1cc2nccc(Oc3ccc(NC(=O)OCCc4ccccc4)cc3)c2cc1OC [Example 297, Phenethyl N-{4-[(6,7-dimethoxy-4-quinolyl)oxy]phenyl}carbamate] |  | < 10 | 41 | 
COc1cc2nccc(Oc3ccc(NC(=S)NCCN(C)C)c(C)c3C)c2cc1OC [Example 542, N-{4-[(6,7-Dimethoxy-4-quinolyl)oxy]-2,3-dimethylphenyl}-N′-(2-dimethylaminoethyl)thiourea] | > 100 |  |  | inhibition at 0.1 µM [1, 4]: 45%; IC50 ([2]; 50 ng/ml h-SCF): 442 nM
CCC(OC(=O)Nc1ccc(Oc2ncnc3cc(OC)c(OC)cc23)cc1Cl)c1ccccc1 (centres unmarked) [Example 346, 1-Phenylpropyl N-{2-chloro-4-[(6,7-dimethoxy-4-quinazolinyl)oxy]phenyl}carbamate] |  | 41 |  | inhibition at 1 µM ([2]; figure in parentheses in −( )): 37%
COc1cc2nccc(Oc3ccc(NC(=S)NCCCN4CCCCC4C)c(C)c3C)c2cc1OC (centres unmarked) [Example 549, N-{4-[(6,7-Dimethoxy-4-quinolyl)oxy]-2,3-dimethylphenyl}-N′-[3-(2-methylpiperidinyl)propyl]thiourea] | 62 |  |  | IC50 ([2]; 50 ng/ml h-SCF): 681 nM
COc1cc2nccc(Oc3ccc(NC(=S)NC(=O)c4ccc(CN5CCOCC5)cc4)cc3)c2cc1OC [Example 1153, N-{4-[(6,7-Dimethoxy-4-quinolyl)oxy]phenyl}-N′-[4-(morpholinomethyl)benzoyl]thiourea] | 43 |  |  | inhibition at 1 µM ([2]; figure in parentheses in −( )): 13%

Further lines, with some results ahead:

IC50 [1] [nM] | IC50 ([1]; Pharmacological Test Example 1) [nM] | IC50 ([2]; h-SCF 50 ng/ml) [nM] | Compound | also measured
18 |  |  | COc1cc2ncnc(Oc3ccc(NC(=O)N[C@H]4CCN(Cc5ccccc5)C4)c([N+](=O)[O-])c3)c2cc1OC [Example 578, N-[(3S)-1-Benzyltetrahydro-1H-3-pyrrolyl]-N′-{4-[(6,7-dimethoxy-4-quinazolinyl)oxy]-2-nitrophenyl}urea] | IC50 ([2]; 50 ng/ml h-SCF): 104 nM
 | 12 | 467 | CCCCC(CC)OC(=O)Nc1cc(C)c(Oc2ccnc3cc(OC)c(OC)cc23)cc1C (centres unmarked) [Example 330, 1-Ethylpentyl N-{4-[(6,7-dimethoxy-4-quinolyl)oxy]-2,5-dimethylphenyl}carbamate] | 
 | < 10 | 366 | CCC(CC)OC(=O)Nc1ccc(Oc2ccnc3cc(OC)c(OC)cc23)cc1 [Example 358, 1-Ethylpropyl N-{4-[(6,7-dimethoxy-4-quinolyl)oxy]phenyl}carbamate] | 
12 |  |  | COc1cc2nccc(Oc3ccc(NC(=O)NC4CCN(Cc5ccccc5)C4)cc3)c2cc1OC (centres unmarked) [Example 560, N-(1-Benzyltetrahydro-1H-3-pyrrolyl)-N′-{4-[(6,7-dimethoxy-4-quinolyl)oxy]phenyl}urea] | IC50 ([2]; 50 ng/ml h-SCF): 107 nM
53 |  |  | COc1cc2ncnc(Oc3ccc(NC(=O)OCc4ccccc4C)c([N+](=O)[O-])c3)c2cc1OC [Example 505, 2-Methylbenzyl N-{4-[(6,7-dimethoxy-4-quinazolinyl)oxy]-2-nitrophenyl}carbamate] | inhibition at 1 µM [2, 5]: 25%
11 |  |  | COc1cc2ncnc(Oc3ccc(NC(=O)NN4CCCCCC4)cc3)c2cc1OC [Example 602, N-{4-[(6,7-Dimethoxy-4-quinazolinyl)oxy]phenyl}-N′-(1-homopiperidinyl)urea] | IC50 ([2]; 50 ng/ml h-SCF): 180 nM
15 |  |  | CCN(C(=O)OC1CCCCC1)c1ccc(Oc2ncnc3cc(OC)c(OC)cc23)cc1Cl [Example 475, Cyclohexyl N-{2-chloro-4-[(6,7-dimethoxy-4-quinazolinyl)oxy]phenyl}-N-ethylcarbamate] | inhibition at 1 µM [2, 5]: 24%
> 100 |  |  | COc1cc2ncnc(Oc3ccc(OC(=O)c4ccccc4)cc3)c2cc1OC [Example 772, 4-[(6,7-Dimethoxy-4-quinazolinyl)oxy]phenyl benzoate] | inhibition at 0.1 µM [1, 4]: 13%; IC50 ([2]; 50 ng/ml h-SCF): 550 nM
 | < 10 | 70 | COc1cc2nccc(Oc3cc(C)c(NC(=O)OCCCSc4ccccn4)cc3C)c2cc1OC [Example 174, 3-(2-Pyridylsulfanyl)propyl N-{4-[(6,7-dimethoxy-4-quinolyl)oxy]-2,5-dimethylphenyl}-carbamate] | 
> 100 |  |  | CCCC(CCN1CCN(C)CC1)OC(=O)Nc1cc(C)c(Oc2ccnc3cc(OC)c(OC)cc23)cc1C (centres unmarked) [Example 450, 1-[2-(4-Methylpiperazino)ethyl]butyl N-{4-[(6,7-dimethoxy-4-quinolyl)oxy]-2,5-dimethylphenyl}carbamate] | inhibition at 0.1 µM [1, 4]: 13%; inhibition at 1 µM [2, 5]: 46%
7 |  |  | COc1cc2nccc(Oc3ccc(NCCCOc4ccccc4Cl)cc3)c2cc1OC [Example 891, N-[3-(2-Chlorophenoxy)propyl]-N-{4-[(6,7-dimethoxy-4-quinolyl)oxy]phenyl}amine] | IC50 ([2]; h-SCF stimulation): 280 nM
< 10 |  |  | COc1cc2nccc(Oc3ccc(NC(=S)NC(=O)C4CCCC4)cc3Cl)c2cc1OC [Example 1182, N-{3-Chloro-4-[(6,7-dimethoxy-4-quinolyl)oxy]phenyl}-N′-cyclopentylcarbonylthiourea] | IC50 ([2]; h-SCF stimulation): 206 nM
 | < 10 | 671 | COc1cc2ncnc(Oc3ccc(NC(=O)OC(C)c4ccccc4F)cc3)c2cc1OC (centres unmarked) [Example 125] | 
 | < 10 | 541 | CCCCC(CCCC)OC(=O)Nc1ccc(Oc2ncnc3cc(OC)c(OC)cc23)cc1 [Example 371, 1-Butylpentyl N-{4-[(6,7-dimethoxy-4-quinazolinyl)oxy]phenyl}carbamate] | 
 | 17 | 74 | COc1cc2ncnc(Oc3ccc(NC(=O)OCCCSc4cc(C)ccc4C)cc3)c2cc1OC [Example 172, 3-[(2,5-Dimethylphenyl)sulfanyl]-propyl N-{4-[(6,7-dimethoxy-4-quinazolinyl)oxy]phenyl}carbamate] | 
 | < 10 | 269 | COc1cc2nccc(Oc3cc(C)c(NC(=O)OCC4CCCCC4)cc3C)c2cc1OC [Example 284, Cyclohexylmethyl N-{4-[(6,7-dimethoxy-4-quinolyl)oxy]-2,5-dimethylphenyl}carbamate] | 
52 |  |  | CCCC(CCN1CCOCC1)OC(=O)Nc1ccc(Oc2ccnc3cc(OC)c(OC)cc23)c(C)c1C (centres unmarked) [Example 439, 1-(2-Morpholinoethyl)butyl N-{4-[(6,7-dimethoxy-4-quinolyl)oxy]-2,3-dimethylphenyl}carbamate] | IC50 ([2]; 50 ng/ml h-SCF): 224 nM

Source: US7135466B2 (Kirin Beer Kabushiki Kaisha, priority 1999, dated 2006)
